Where two headings read alike, the source gives them in different places.
Experiments:
[1] = target: T1, hM3 (human Muscarinic receptor subtype 3) (Homo sapiens, UniProt P20309); assay: Human M3 calcium mobilization FLIPR assay; type: cell-based; details: hM3 expressed in CHO cells, intracellular Ca2+ release
T1 construct: expressed in transfected cells; host or cells: CHO cells (Chinese hamster ovary cells, ATCC)
Procedure: (§1) Human M1, rat M1, human M3 and human M5 Calcium Mobilization FLIPR™ Assay
(§2) The compound activity in the present invention (EC50 or IC50) is measured using a 384 plate-based imaging assay that monitors drug induced intracellular Ca^2+ release in whole cells. Activation of hM1 (human Muscarinic receptor subtype 1, gene bank access NM_000738), rM1 (rat Muscarinic receptor subtype 1, gene bank access NM_080773), hM3 (human Muscarinic receptor subtype 3, gene bank access NM_000740NM_000740) and hM5 (human Muscarinic receptor subtype 5, gene bank access NM_0121258), receptors expressed in CHO cells (Chinese hamster ovary cells, ATCC) is quantified in a Molecular Devices FLIPR II™ instrument as an increase in fluorescent signal. Inhibition of hM3 and hM5 by compounds is determined by the decrease in fluorescent signal in response to 2 nM acetylcholine activation.
(§3) Prior to experiment, the cell culture medium is removed from the plates by inversion. […] Plates are incubated at 37° C. for 60 minutes prior to start the experiment. The incubation is terminated by washing the cells four times in assay buffer, leaving a residual 25 μl buffer per well. Cell plates are then transferred to the FLIPR, ready for compound additions.
(§4) The day of experiment, acetylcholine and compounds are diluted in assay buffer in three-fold concentration range (10 points serial dilution) for addition by FLIPR instrument. For all calcium assays, a baseline reading is taken for 10 seconds followed by the addition of 12.5 μl of compounds, resulting in a total well volume of 37.5 μl. Data is collected every second for 60 pictures and then every 6 seconds for 20 pictures prior to the addition of agonist. For hM3 and hM5, before agonist addition, a second baseline reading is taken for 10 seconds followed by the addition of 12.5 μl of agonist or buffer, producing a final volume of 50 μl. After agonist stimulation, the FLIPR continues to collect data every second for 60 pictures and then every 6 seconds for 20 pictures. The fluorescence emission is read using filter 1 (emission 510-570 nm) by the FLIPR on board CCD camera.
(§5) Calcium mobilization output data are calculated as the maximal relative fluorescence unit (RFU) minus the minimal value for both compound and agonist reading frame (except for hM1 and rM1 using only the maximal RFU). Data are analyzed using sigmoidal fits of a non-linear curve-fitting program (XLfit version 4.2.2 Excel add-in version 4.2.2 build 18 math 1Q version 2.1.2 build 18). All pEC50 and plC50 values are reported as arithmetic means ±standard error of mean of ‘n’ independent experiments.

[2] = target: T2, hM5 (human Muscarinic receptor subtype 5) (Homo sapiens, UniProt P08912); assay: Human M5 calcium mobilization FLIPR assay; type: cell-based; details: hM5 expressed in CHO cells, intracellular Ca2+ release
T2 construct: expressed in transfected cells; host or cells: CHO cells (Chinese hamster ovary cells, ATCC)
T2 sequence (P08912 1-532): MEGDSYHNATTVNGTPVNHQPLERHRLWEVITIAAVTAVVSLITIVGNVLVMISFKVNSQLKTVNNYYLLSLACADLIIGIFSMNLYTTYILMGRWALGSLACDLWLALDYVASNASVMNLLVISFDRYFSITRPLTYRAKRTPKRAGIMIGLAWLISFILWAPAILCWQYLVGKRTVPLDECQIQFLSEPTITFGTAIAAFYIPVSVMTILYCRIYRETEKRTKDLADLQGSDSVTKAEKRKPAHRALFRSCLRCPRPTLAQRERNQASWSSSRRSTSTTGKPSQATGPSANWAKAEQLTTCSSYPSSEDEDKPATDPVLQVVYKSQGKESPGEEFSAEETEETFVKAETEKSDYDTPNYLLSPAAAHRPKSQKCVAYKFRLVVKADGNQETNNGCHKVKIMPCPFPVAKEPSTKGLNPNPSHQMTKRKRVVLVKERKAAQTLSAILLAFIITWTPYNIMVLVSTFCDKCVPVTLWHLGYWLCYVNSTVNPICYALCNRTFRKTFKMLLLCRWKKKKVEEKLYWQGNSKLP
Procedure: as §1, §2, §3, §4, §5

T1 sequence (P20309 whole entry): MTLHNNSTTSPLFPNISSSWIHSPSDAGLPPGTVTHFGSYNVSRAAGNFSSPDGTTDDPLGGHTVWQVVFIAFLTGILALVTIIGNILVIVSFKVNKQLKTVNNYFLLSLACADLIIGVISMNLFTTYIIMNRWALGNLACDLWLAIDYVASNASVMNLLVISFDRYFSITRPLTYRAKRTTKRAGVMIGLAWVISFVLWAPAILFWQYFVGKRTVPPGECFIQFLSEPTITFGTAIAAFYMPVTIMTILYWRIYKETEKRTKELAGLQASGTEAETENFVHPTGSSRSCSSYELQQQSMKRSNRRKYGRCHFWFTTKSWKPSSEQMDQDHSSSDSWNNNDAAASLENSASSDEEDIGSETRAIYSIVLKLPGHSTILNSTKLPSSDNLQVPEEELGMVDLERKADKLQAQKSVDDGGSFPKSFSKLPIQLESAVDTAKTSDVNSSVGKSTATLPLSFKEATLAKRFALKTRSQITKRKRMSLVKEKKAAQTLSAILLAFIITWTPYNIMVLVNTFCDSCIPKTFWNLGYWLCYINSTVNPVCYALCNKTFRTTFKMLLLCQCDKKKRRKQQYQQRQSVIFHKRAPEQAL

Row | Compound | EC50 ([1]; read-out: hM3 EC50) [nM] | EC50 ([2]; read-out: hM5 EC50) [nM] | EC50 ([1]; hM3 EC50 (nM)) [nM] | EC50 ([2]; hM5 EC50 (nM)) [nM]
1 | CCOC(=O)N1CCC(C)(N2CCC(N3C(=O)Cc4ccccc43)CC2)C1 (single isomer, unassigned) [Example 73, ethyl 3-methyl-3-(4-(2-oxoindolin-1-yl)piperidin-1-yl)pyrrolidine-1-carboxylate] | > 40000 | > 40000 |  | 
2 | COC(=O)N1CCC(C)(N2CCC(N3C(=O)Cc4ccc(C)cc43)CC2)C1 (single isomer, unassigned) [Example 68, methyl 3-methyl-3-(4-(6-methyl-2-oxoindolin-1-yl)piperidin-1-yl)pyrrolidine-1-carboxylate] | 2330 | > 4080 |  | 
3 | CCOC(=O)N1CCC(C)(N2CCC(n3c(=O)[nH]c4ccccc43)CC2)C1 (stereo not shown) [Example 1, ethyl 3-methyl-3-(4-(2-oxo-2,3-dihydro-1H-benzo[d]imidazol-1-yl)piperidin-1-yl)pyrrolidine-1-carboxylate] | 1400 | 136 |  | 
4 | CC1(N2CCC(n3c(=O)[nH]c4cc(F)ccc43)CC2)CCN(C(=O)OCCF)C1 (single isomer, unassigned) [Example 24, 2-fluoroethyl 3-(4-(5-fluoro-2-oxo-2,3-dihydro-1H-benzo[d]imidazol-1-yl)piperidin-1-yl)-3-methylpyrrolidine-1-carboxylate] | > 26500 | 1570 |  | 
5 | COC(=O)N1CCC(C)(N2CCC(n3c(=O)[nH]c4cc(C)ccc43)CC2)C1 (single isomer, unassigned) [Example 48, methyl 3-methyl-3-(4-(5-methyl-2-oxo-2,3-dihydro-1H-benzo[d]imidazol-1-yl)piperidin-1-yl)pyrrolidine-1-carboxylate] | > 40000 | > 40000 |  | 
6 | CCOC(=O)N1CCC(C)(N2CCC(n3c(=O)[nH]c4ccc(F)cc43)CC2)C1 (single isomer, unassigned) [Example 50, ethyl 3-(4-(6-fluoro-2-oxo-2,3-dihydro-1H-benzo[d]imidazol-1-yl)piperidin-1-yl)-3-methylpyrrolidine-1-carboxylate] | > 40000 | 3560 |  | 
7 | CCOC(=O)N1CCC(C)(N2CCC(N3C(=O)Cc4cc(F)ccc43)CC2)C1 (single isomer, unassigned) [Example 79, ethyl 3-(4-(5-fluoro-2-oxoindolin-1-yl)piperidin-1-yl)-3-methylpyrrolidine-1-carboxylate] | > 40000 | 2540 |  | 
8 | CCOC(=O)N1CCC(C)(N2CCC(N3C(=O)Cc4ccccc43)CC2)C1 (single isomer, unassigned) [Example 72, ethyl 3-methyl-3-(4-(2-oxoindolin-1-yl)piperidin-1-yl)pyrrolidine-1-carboxylate] | > 40000 | > 40000 |  | 
9 | CCOC(=O)N1CCC(C)(N2CCC(n3c(=O)[nH]c4cc(F)ccc43)CC2)C1 (single isomer, unassigned) [Example 7, ethyl 3-(4-(5-fluoro-2-oxo-2,3-dihydro-1H-benzo[d]imidazol-1-yl)piperidin-1-yl)-3-methylpyrrolidine-1-carboxylate] | > 40000 | 3100 |  | 
10 | CCOC(=O)N1CCC(C)(N2CCC(N3C(=O)Cc4ccc(F)cc43)CC2)C1 (single isomer, unassigned) [Example 74, ethyl 3-(4-(6-fluoro-2-oxoindolin-1-yl)piperidin-1-yl)-3-methylpyrrolidine-1-carboxylate] | > 40000 | > 21200 |  | 
11 | COC(=O)N1CCC(C)(N2CCC(N3C(=O)Cc4cc(F)c(C)cc43)CC2)C1 (single isomer, unassigned) [Example 83, methyl 3-(4-(5-fluoro-6-methyl-2-oxoindolin-1-yl)piperidin-1-yl)-3-methylpyrrolidine-1-carboxylate] |  |  | > 18400 | 3560
12 | C#CCOC(=O)N1CCC(C)(N2CCC(n3c(=O)[nH]c4ccc(C)cc43)CC2)C1 (single isomer, unassigned) [Example 41, prop-2-ynyl 3-methyl-3-(4-(6-methyl-2-oxo-2,3-dihydro-1H-benzo[d]imidazol-1-yl)piperidin-1-yl)pyrrolidine-1-carboxylate] | > 40000 | > 40000 |  | 
13 | CCOC(=O)N1CCC(C)(N2CCC(N3C(=O)Cc4ccc(F)cc43)CC2)C1 (single isomer, unassigned) [Example 75, ethyl 3-(4-(6-fluoro-2-oxoindolin-1-yl)piperidin-1-yl)-3-methylpyrrolidine-1-carboxylate] | > 40000 | > 27000 |  | 
14 | CCOC(=O)N1CCC(C)(N2CCC(N3C(=O)Cc4ccc(C)cc43)CC2)C1 (single isomer, unassigned) [Example 69, ethyl 3-methyl-3-(4-(6-methyl-2-oxoindolin-1-yl)piperidin-1-yl)pyrrolidine-1-carboxylate] | > 40000 | 1370 |  | 

Reference: patent US20090221642A1, “MUSCARINIC RECEPTOR AGONISTS, COMPOSITIONS, METHODS OF TREATMENT THEREOF, AND PROCESSES FOR PREPARATION THEREOF-176” (AstraZeneca AB, priority 2008, published 2009)
